Like-named read-outs stand apart in the source and are kept apart here.
Columns and labels:
Format in all cases: cell-based
[1] = target: T1, rTRPV1 (Rattus norvegicus, UniProt O35433); assay: whole-cell voltage clamp, CHO cells expressing rTRPV1; block of odorant-evoked currents
T1 construct: gene Trpv1

[2] = target: T2, rTRPA1 (Rattus norvegicus, UniProt Q6RI86); assay: whole-cell voltage clamp, CHO cells expressing rTRPA1; block of odorant-evoked currents
T2 construct: gene Trpa1

[3] = target: rTASK1 (K2P3, KCNK3) (Rattus norvegicus, UniProt O54912); assay: two-electrode voltage clamp, Xenopus oocytes expressing rTASK1, dose-response
Chain of rTASK1 (K2P3, KCNK3) (O54912 whole entry): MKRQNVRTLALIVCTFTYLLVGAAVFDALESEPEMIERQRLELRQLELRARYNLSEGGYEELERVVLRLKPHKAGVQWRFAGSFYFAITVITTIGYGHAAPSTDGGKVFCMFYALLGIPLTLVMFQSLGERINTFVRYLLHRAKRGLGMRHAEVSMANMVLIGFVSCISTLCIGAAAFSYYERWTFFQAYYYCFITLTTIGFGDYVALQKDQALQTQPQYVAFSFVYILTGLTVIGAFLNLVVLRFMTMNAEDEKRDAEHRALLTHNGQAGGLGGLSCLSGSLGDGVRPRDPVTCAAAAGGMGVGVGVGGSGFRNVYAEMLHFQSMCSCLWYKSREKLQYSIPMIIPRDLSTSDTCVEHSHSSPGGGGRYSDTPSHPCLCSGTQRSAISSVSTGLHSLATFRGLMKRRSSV

T2 sequence (Q6RI86 whole entry): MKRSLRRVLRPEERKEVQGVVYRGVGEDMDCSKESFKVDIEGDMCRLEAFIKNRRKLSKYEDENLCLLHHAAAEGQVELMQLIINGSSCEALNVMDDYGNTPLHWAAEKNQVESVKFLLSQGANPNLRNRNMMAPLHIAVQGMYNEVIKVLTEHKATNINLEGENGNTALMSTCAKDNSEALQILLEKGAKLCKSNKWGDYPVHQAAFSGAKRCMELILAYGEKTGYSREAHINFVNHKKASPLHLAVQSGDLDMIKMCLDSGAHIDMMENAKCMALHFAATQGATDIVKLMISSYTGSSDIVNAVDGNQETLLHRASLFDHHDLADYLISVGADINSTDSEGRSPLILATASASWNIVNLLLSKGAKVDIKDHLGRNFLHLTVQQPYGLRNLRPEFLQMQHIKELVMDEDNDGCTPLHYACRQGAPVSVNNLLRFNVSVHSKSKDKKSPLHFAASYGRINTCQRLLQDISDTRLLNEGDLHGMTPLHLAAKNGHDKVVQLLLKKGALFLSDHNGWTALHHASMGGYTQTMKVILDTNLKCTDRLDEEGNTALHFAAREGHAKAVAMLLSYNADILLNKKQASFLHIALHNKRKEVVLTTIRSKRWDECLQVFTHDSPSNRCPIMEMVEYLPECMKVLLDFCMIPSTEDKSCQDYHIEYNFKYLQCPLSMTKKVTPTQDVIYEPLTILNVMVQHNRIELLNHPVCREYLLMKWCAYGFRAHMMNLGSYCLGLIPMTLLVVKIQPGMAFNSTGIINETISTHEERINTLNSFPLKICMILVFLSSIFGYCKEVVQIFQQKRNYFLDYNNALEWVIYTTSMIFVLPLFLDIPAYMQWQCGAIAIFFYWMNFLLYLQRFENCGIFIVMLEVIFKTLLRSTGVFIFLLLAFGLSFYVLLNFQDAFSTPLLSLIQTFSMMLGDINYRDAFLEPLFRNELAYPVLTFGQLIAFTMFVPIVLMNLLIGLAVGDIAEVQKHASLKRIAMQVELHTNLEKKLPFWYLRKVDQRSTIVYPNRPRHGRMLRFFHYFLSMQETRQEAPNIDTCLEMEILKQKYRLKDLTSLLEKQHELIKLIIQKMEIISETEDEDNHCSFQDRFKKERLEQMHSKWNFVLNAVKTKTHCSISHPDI
T1 sequence (O35433 whole entry): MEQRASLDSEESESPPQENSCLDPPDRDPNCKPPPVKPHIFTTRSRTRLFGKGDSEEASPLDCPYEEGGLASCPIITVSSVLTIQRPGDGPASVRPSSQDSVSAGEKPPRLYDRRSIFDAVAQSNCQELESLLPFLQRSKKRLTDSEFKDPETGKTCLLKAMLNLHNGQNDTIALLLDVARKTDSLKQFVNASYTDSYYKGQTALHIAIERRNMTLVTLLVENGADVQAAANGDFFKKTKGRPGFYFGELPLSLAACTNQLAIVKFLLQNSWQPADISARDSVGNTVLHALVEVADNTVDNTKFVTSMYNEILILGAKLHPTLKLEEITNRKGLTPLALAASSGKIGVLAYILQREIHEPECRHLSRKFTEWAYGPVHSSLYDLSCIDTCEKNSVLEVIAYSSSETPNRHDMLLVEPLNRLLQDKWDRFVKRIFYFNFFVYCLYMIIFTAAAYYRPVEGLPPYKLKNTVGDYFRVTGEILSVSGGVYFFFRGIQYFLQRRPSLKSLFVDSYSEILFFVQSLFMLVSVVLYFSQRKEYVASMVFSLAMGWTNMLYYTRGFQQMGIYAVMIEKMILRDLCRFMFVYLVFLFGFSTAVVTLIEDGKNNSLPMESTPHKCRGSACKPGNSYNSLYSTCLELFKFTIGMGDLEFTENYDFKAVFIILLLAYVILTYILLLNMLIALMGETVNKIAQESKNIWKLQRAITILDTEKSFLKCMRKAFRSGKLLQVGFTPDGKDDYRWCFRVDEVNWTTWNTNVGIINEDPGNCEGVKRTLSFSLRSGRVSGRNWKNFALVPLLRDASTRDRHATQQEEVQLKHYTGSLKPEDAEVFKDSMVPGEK

## Oc1cc2c(cc1O)CN(C(=S)NCCc1ccc(Cl)cc1)CCC2 [CPZ, capsazepine]
[1]
  whole-cell voltage clamp, CHO cells expressing rTRPV1; block of odorant-evoked c: Co-administration of CPZ nearly completely inhibited all odorant-evoked outward currents

## CC(C)c1ccc(NC(=O)Cn2cnc3c2c(=O)n(C)c(=O)n3C)cc1 [HC, HC-030031]
[2]
  whole-cell voltage clamp, CHO cells expressing rTRPA1; block of odorant-evoked c: Co-administration of HC nearly completely inhibited vanillin- and HTPA-evoked outward and inward currents

## CC(C)=CCC/C(C)=C/CO [geraniol]
[3]; read-out: IC50
  IC50: 580 ± 90 µM

## CC(=O)CCc1ccc2c(c1)OCO2 [heliotropyl acetone]
[3]
  IC50: 890 ± 120 µM
